The text below walks through data of ChEMBL document CHEMBL1157539, “Thousands of chemical starting points for antimalarial lead identification” (Nature, 2010).

For this test, the system named is Plasmodium falciparum. As to the kind of experiment: GSK_TCMDC: Inhibition of Plasmodium falciparum 3D7 in whole erythrocytes, using parasite LDH activity as an index of growth. As to conditions: Plasmodium falciparum, 3D7. The test is classed as functional, organism-based.
For the compound `COc1ccc2nc(C)cc(N/N=C/c3ccc([N+](=O)[O-])cc3)c2c1`, the XC50 worked out at 0.695 µM.
In the case of `Cc1cnc(C(=O)Nc2cccc(-c3ccc(-c4nc5cc(F)ccc5[nH]4)cc3)c2)cn1`, the XC50 is 0.637 µM.
For `COc1cccc(Nc2nc(C)cc(NC3CCCC3)n2)c1` the value was 1.11 µM.
For `Cc1cc(N2CCOCC2)nc(Nc2ccc(NC(=O)Nc3ccc(F)cc3)cc2)n1` the value was 0.495 µM; for `CCOC(=O)c1ccc(NC(=O)N[C@@H](Cc2ccc(O)cc2)C(=O)NC2CCN(Cc3ccc4c(c3)OCO4)CC2)cc1`, 1.06 µM.
`O=C(Nc1cccc(Cl)c1)OC1CCCN2CCCCC12` (centres undefined) displayed an XC50 of 1.02 µM.
For `CCc1ccc(S(=O)(=O)Nc2ccc(CCN(C)C3CCN(C)CC3)cc2)cc1` the value was 1.06 µM; for `Cc1ccc(Cn2ncc(N3CCCNCC3)c(Cl)c2=O)cc1NC(=O)Nc1ccc(-c2ccccc2)cc1`, 0.625 µM.
For `CN1CCN(c2ccc(-c3cccc(NC(=O)c4ccc5ccccc5c4)c3)nn2)CC1` the value was 0.383 µM.
To `Cc1cc(NCCC(=O)NCCOc2ccccc2)nc(NCCc2ccc(F)cc2)n1` belongs 0.94 µM; to `Cc1cccc2nc(-c3cccc(-c4ccc(CNCc5cnn(-c6ccccc6)n5)cc4)c3)[nH]c12`, 0.921 µM; to `O=C1Nc2ccc3ncccc3c2/C1=C/Nc1ccc(Cn2ccnc2)cc1`, 0.659 µM.
In turn, `NC1CCN(Cc2cccc(-c3ccc(-c4nc5ccccc5[nH]4)s3)c2)C1` (centres undefined) yielded an XC50 of 0.727 µM.
Turning to `CCOC(C(=O)OCCN(C(C)C)C(C)C)(c1ccccc1)c1ccccc1`, the XC50 worked out at 0.874 µM.
To `Cc1cccc2c(C3CCN(CC4CCC(NC(=O)/C=C/c5ccc(Cl)c(Cl)c5)CC4)CC3)c[nH]c12` (centres undefined) belongs 1.03 µM; to `Cc1cc(C(=O)NCc2ccc(-c3c(C)noc3C)cc2)n(-c2ccccc2)n1`, 0.825 µM; to `CC1(C)NC(N)=NC(=N)N1OCCSCCON1C(=N)N=C(N)NC1(C)C`, 0.0506 µM.
For `CC(C)c1cc(Oc2c(I)cc(CCCc3ncc[nH]3)cc2I)ccc1O` the value was 1.12 µM.
`CN(C)Cc1cccc(-c2ccc(NC(=O)c3ccc4c(=O)n(Cc5ccoc5)cnc4c3)cc2)c1` returned an XC50 of 0.77 µM.
To `Cc1[nH]c2ccccc2c1CC1CCN(CC2CCN(C(=O)/C=C/c3ccc(Cl)c(Cl)c3)CC2)CC1` belongs 0.95 µM; to `CC(=O)C=C1CC(=O)N(C[C@@H](O)[C@H]2O[C@@H]3OC(C)(C)O[C@@H]3[C@H]2O)c2ccccc2N1`, 1.26 µM.
To `O=C(Nc1cccc(CN2CCCN(Cc3ccc(O)cc3)CC2)c1)c1cc(F)cc(F)c1` belongs 0.658 µM; to `CC(C)C[C@H](NC(=O)c1cc2ccccc2s1)C(=O)N[C@H]1CCN(Cc2ccc(OCCN3CCNCC3)c3ccccc23)C1`, 1.42 µM.
Compound `COc1ccc2ccc(F)c(CC(=O)N3CCOC(CNCc4cccc(-c5ccsc5)n4)C3)c2n1` (centres undefined) gave an XC50 of 1.17 µM.
For `O=C(Nc1ccc(Cl)cc1)Nc1cccc(-c2ccc(-c3nc4ccccc4[nH]3)cc2)c1` the value was 0.928 µM; for `CC(=O)Nc1nc(N)c2c(ccc3c2ccn3CC(C)C)n1`, 0.0696 µM.
For `CCCNC(=O)C1Cc2c([nH]c3cc(Br)ccc23)C2(CCN(CCc3ccccc3)CC2)N1` (centres undefined) the value was 0.972 µM.
In turn, `CN(CCN)Cc1cccc(-c2cccc(-c3nc4cc(C(F)(F)F)ccc4[nH]3)c2)c1` displayed an XC50 of 0.509 µM.
To `COc1ccc(O)c(Cc2cnc3nc(N)[nH]c(=O)c3c2C)c1` belongs 0.234 µM.
To `CN(C)CCC1CCN(CCS(=O)(=O)c2cccc(Nc3ncc(-c4cccc(F)c4)cn3)c2)CC1` belongs 1.06 µM; to `COc1ccc(C2(CNCC(O)c3cccc([N+](=O)[O-])c3)CCCCC2)cc1OC` (centres undefined), 0.957 µM; to `O=C(/C=C/c1ccc(C(F)(F)F)cc1)NCCCCCN1CCCN(C(=O)Nc2ccc(F)c(Cl)c2)CC1`, 0.368 µM.
Take `Cc1ccccc1C1CCN(C2CCC(NC(=O)/C=C/c3ccccc3C(F)(F)F)CC2)CC1` (centres undefined): the XC50 came out at 1.41 µM.
For `Cc1ccccc1C1CCN(C2CCC(NC(=O)c3cncc(-c4ccccc4)c3)CC2)CC1` (centres undefined) the value was 0.93 µM; for `O=C(Nc1ccc(Cl)cc1)c1cccc(S(=O)(=O)NC2CCN(CC3CCCCC3)CC2)c1`, 0.722 µM.
To `Cc1ccc(C)c(CN2CCC(CNC(=O)c3cc4ccc5cccnc5c4[nH]3)CC2)c1` belongs 0.993 µM; to `CC(C)N1CCN(c2ccc(OCCCCN3CCN(c4cccc(Cl)c4Cl)CC3)c(C(F)(F)F)c2)CC1`, 0.815 µM; to `c1cc(CN2CCCCC2)cc(-c2csc(-c3nc4ccccc4[nH]3)c2)c1`, 0.848 µM.
For `CN1CCN(Cc2cc3cc(NC(=O)/C=C/c4cccc(Cl)c4)ccc3s2)CC1` the value was 0.273 µM; for `CC(=NNC(N)=O)C1=C(O)C(c2ccccc2)N(C2CCCCC2)C1=O` (centres undefined), 0.033 µM.
Take `CN1CCN(c2cc3c(Nc4ccc5c(cnn5Cc5ccccc5)c4)ncnc3cn2)CC1`: the XC50 was found to be 1.13 µM.
On to `O=C(Nc1ccc(Br)cc1)N1CCC(n2c(-c3ccccc3)nc3cccnc32)CC1`, for which the XC50 came out at 0.763 µM.
For `O=C(/C=C/c1ccc(Cl)c(Cl)c1)NCCCCCN1CCC(NC(=O)Nc2cccc(Cl)c2Cl)CC1` the value was 0.667 µM; for `CCN(CC)S(=O)(=O)n1ncc2c3c(N)nc(N)nc3ccc21`, 0.0549 µM.
`Cc1occc1C(=O)Nc1nc(-c2ccccn2)nc2ccsc12` had an XC50 of 0.899 µM.
To `CCSc1ccccc1CON1C(=N)N=C(N)NC1(C)C` belongs 0.0032 µM; to `CC1(C)N=C(N)N=C(N)N1c1ccc(Oc2ccccc2)cc1`, 0.341 µM.
For `O=C(NC1CCCc2ccccc21)[C@@H]1CCCN1C(=O)c1ccc(O)c(-c2ccc(Cl)c(Cl)c2)c1` (some centres undefined) the value was 0.209 µM; for `CN(C)Cc1ccc(CN2CCN(CCOc3ccc(-c4ccc(Cl)cc4)cc3)CC2)o1`, 1.02 µM.
To `CC(O)C(C)(CO)NCc1ccc2c3c(cccc13)-c1ccccc1-2` (centres undefined) belongs 0.818 µM.
For the compound `CC(C)(C)c1ccccc1SC1=C(O)CC2(CCNCC2)OC1=O`, the XC50 worked out at 0.884 µM.
As to `O=C(/C=C/c1ccc(Cl)c(Cl)c1)NC1C2CCC1CC(CN1CCC(c3c[nH]c4ccccc34)CC1)C2` (centres undefined), the XC50 stood at 0.203 µM.
To `O=C(c1ccccc1[N+](=O)[O-])N(Cc1ccccc1)c1ccccn1` belongs 0.192 µM.
As to `Brc1ccc(C=NNc2nc3ccccc3[nH]2)cc1`, the XC50 came out at 0.7 µM.
To `CCNc1c2ccc(Cl)cc2nc2ccc(OC)cc12` belongs 0.843 µM.
For `Nc1nc(N)c2cc(C(F)(F)F)ccc2n1` the value was 1.13 µM.
To `N#Cc1ccc(CN2CCC(Oc3ccc(NC(=O)c4cccs4)cc3)CC2)cc1` belongs 1.03 µM; to `COc1ccccc1Cc1nc2ccccc2nc1SCC(=O)Nc1cccc(C(F)(F)F)c1`, 0.499 µM.
Consider `Cc1ccc2nc(N(CCCn3ccnc3)C(=O)C=Cc3cccs3)sc2c1`, for which the XC50 was 1.39 µM.
For `CC(=O)N(C)c1cccc(CNc2cc(C)nc(Nc3ccc(C)cc3)n2)c1` the value was 0.996 µM.
For `CC(=O)Nc1ccc2[nH]cc(C3CCN(CC4CCN(C(=O)/C=C/c5ccc(Cl)c(Cl)c5)CC4)CC3)c2n1` the value was 0.161 µM; for `CCCN1CCN(Cc2ccc(C(=O)Nc3ccc(Cl)cc3)cc2)CC1`, 0.0485 µM; for `CCC(=O)c1c(C)n(-c2ncnc3c2nc(C)n3-c2ccc(C)cc2C)c2ccccc12`, 0.645 µM.
In turn, `Cc1ccccc1Nc1nc(NCc2ccccc2)nc2ccccc12` returned an XC50 of 1.02 µM.
